Laboratory results: patent US4161523A, “Rosamicin esters, acid addition salts and methods for production thereof” (priority 1974, dated 1979)
Values after ≈ are worked out from the molar mass of the structure shown. Where a name gives a salt, the structure may show the parent alone. Read-outs that look alike come from different tables or passages of the source.

Experiments:
[1] = tested on: Bacillus subtilis ATCC 6633; test: Cylinder cup assay (bioassay potency); assay type: cell-based; conditions: for potency (bioassay): reference standard assigned 1000 mcg/mg
Method: The assay technique employed is a cylinder cup assay using Bacillus subtilis ATCC 6633 as the test organism.
The physical conditions of the assay consist of a base layer of 21 ml. and a seed layer of 4 ml. of Antibiotic Medium No. 5. A standard curve is plotted using the following concentrations of antibiotic ([…]) in 0.1 M phosphate buffer (pH 8.0): 0.64, 0.8, 1.0, 1.25, and 1.56. […] The test procedure and the test medium is substantially that described for erythromycin in Assay Methods of Antibiotics, D. C. Grove and W. A. Randall, Medical Encyclopedia Inc., New York, New York (1955) pp. 96-103.

Streptococcus pyogenes C = test: Protective activity in mice, Streptococcus pyogenes C infection; assay type: in vivo, male CF-1 (Carworth Farms) mice; conditions: two doses, survival 48 hours after infection, read-out: PD50
Method: (§1) The protective activity and the acute toxicity of Antibiotic 67-694 is tested in male CF-1 (Carworth Farms) mice weighing approximately 20 gms. each. For protection, the antibiotic is given as a suspension or a solution in an aqueous vehicle containing 0.5% carboxy methyl cellulose (CMC) in two doses; one shortly before and one 4 hours after intraperitoneal infection with the bacteria. Infected and non-treated mice (controls) generally die within 18 hours. Survival rate in the treated group is determined 48 hours after infection.
(§2) The acute toxicity of Antibiotic 67-694 is measured in the standard manner by administering the antibiotic by a variety of routes and determining the LD50 by standard procedures. The results of in vivo tests using a representative gram-positive and a representative gram negative organism are set forth in Tables X and Xi below: […]

Proteus sp. = test: In vitro activity, tube dilution (MIC), Proteus sp.; assay type: cell-based; conditions: 3 strains; yeast beef broth pH 7.4, 18 h, 37° C.; read-out: MIC (Minimal Inhibitory Concentration), range
Method: (§3) The in vitro activity of Antibiotic 67-694 is ascertained by conventional tube dilution procedures using yeast beef broth medium at pH 7.4. The tubes are incubated for 18 hours at 37° C. prior to being observed.

[2] = tested on: Staphylococcus aureus gray; test: Protective activity in mice, Staphylococcus aureus gray infection; assay type: in vivo, male CF-1 (Carworth Farms) mice; conditions: two doses, survival 48 hours after infection, read-out: PD50
Method: as §1, §2

Diplococcus Pneumoniae = test: In vitro activity, tube dilution (MIC), Diplococcus Pneumoniae; assay type: cell-based; conditions: 3 strains; yeast beef broth pH 7.4, 18 h, 37° C.; read-out: MIC (Minimal Inhibitory Concentration), range
Method: as §3

chymotrypsin = test: Stability to chymotrypsin; assay type: in vitro ADME; conditions: chymotrypsin 1 mg./ml. pH 8, 37° C., 24 hours; disc assay E. coli and S. aureus
Method: (§4) Antiobiotic 67-694 has been tested for stability against trypsin, chymotrypsin, pepsin, and α-amylase. Solutions of the enzymes were prepared at 1 mg./ml. in McIlvaines buffers at the optimal pH for the enzyme (i.e. trypsin and chymotrypsin pH 8; pepsin, pH 2.2; and α-amylase pH 4). Two hundred (200) mcg. of antibiotic was dissolved in 0.5 ml. of water, mixed with 0.5 ml. of enzyme solution and incubated at 37° C. for 24 hours. The solutions were disc assayed against Escherichia coli and Staphylococcus aureus after 0, 1, 2.5 and 24 hours incubation.

Escherichia coli = test: In vitro activity, tube dilution (MIC), Escherichia coli; assay type: cell-based; conditions: 3 strains; yeast beef broth pH 7.4, 18 h, 37° C.; read-out: MIC (Minimal Inhibitory Concentration), range
Method: as §3

Klebsiella pneumoniae = test: In vitro activity, tube dilution (MIC), Klebsiella pneumoniae; assay type: cell-based; conditions: 4 strains; yeast beef broth pH 7.4, 18 h, 37° C.; read-out: MIC (Minimal Inhibitory Concentration), range
Method: as §3

trypsin = test: Stability to trypsin; assay type: in vitro ADME; conditions: trypsin 1 mg./ml. pH 8, 37° C., 24 hours; disc assay E. coli and S. aureus
Method: as §4

Pseudomonas aeruginosa = test: In vitro activity, tube dilution (MIC), Pseudomonas aeruginosa; assay type: cell-based; conditions: 4 strains; yeast beef broth pH 7.4, 18 h, 37° C.; read-out: MIC (Minimal Inhibitory Concentration), range
Method: as §3

Aerobacter aerogenes = test: In vitro activity, tube dilution (MIC), Aerobacter aerogenes; assay type: cell-based; conditions: 3 strains; yeast beef broth pH 7.4, 18 h, 37° C.; read-out: MIC (Minimal Inhibitory Concentration), range
Method: as §3

α-amylase = test: Stability to α-amylase; assay type: in vitro ADME; conditions: α-amylase 1 mg./ml. pH 4, 37° C., 24 hours; disc assay E. coli and S. aureus
Method: as §4

Streptococcus pyogenes = test: In vitro activity, tube dilution (MIC), Streptococcus pyogenes; assay type: cell-based; conditions: 7 strains; yeast beef broth pH 7.4, 18 h, 37° C.; read-out: MIC (Minimal Inhibitory Concentration), range
Method: as §3

Solubility = assay type: physicochemical; conditions: U.S. Pharmacopea, 17th revision
Description: ^a) According to U.S. Pharmacopea, 17th revision (1965) pg. 8

pepsin = test: Stability to pepsin; assay type: in vitro ADME; conditions: pepsin 1 mg./ml. pH 2.2, 37° C., 24 hours; disc assay E. coli and S. aureus
Method: as §4

Acute toxicity in mice = test: Acute toxicity in mice; parameters: species or system male CF-1 (Carworth Farms) mice; conditions: mouse, in vivo
Method: as §1, §2

gram-positive bacteria = test: Antibacterial activity, general statements; assay type: cell-based
Method: as §3

pKa = assay type: physicochemical
[3] = tested on: Salmonella schottmuelleri; test: In vitro activity, tube dilution (MIC), Salmonella schottmuelleri; assay type: cell-based; conditions: 3 strains; yeast beef broth pH 7.4, 18 h, 37° C.; read-out: MIC (Minimal Inhibitory Concentration), range
Method: as §3

Enterococcus sp. = test: In vitro activity, tube dilution (MIC), Enterococcus sp.; assay type: cell-based; conditions: 2 strains; yeast beef broth pH 7.4, 18 h, 37° C.; read-out: MIC (Minimal Inhibitory Concentration), range
Method: as §3

Staphylococcus aureus = test: In vitro activity, tube dilution (MIC), Staphylococcus aureus; assay type: cell-based; conditions: 6 strains; yeast beef broth pH 7.4, 18 h, 37° C.; read-out: MIC (Minimal Inhibitory Concentration), range
Method: as §3

[4] = in 66% dimethylformamide; data from U.S. Pat. No. 3,767,793; cited from earlier work
[5] = U.S. Pat. No. 3,767,793, cited from earlier work

With `CCCCCCCCCCCCCCCCCC(=O)OC1C(OC2C(CC=O)CC(C)C(=O)C=CC3(C)OC3C(C)C(CC)OC(=O)CC(O)C2C)OC(C)CC1N(C)C` (centres unmarked) [Antibiotic 67-694 2'-stearate, Antibiotic 67-694 2'-Stearate] the “potency (bioassay)” value [1] was 585 µg/mg.

In the case of `CCC(=O)OC1C(OC2C(CC=O)CC(C)C(=O)C=CC3(C)OC3C(C)C(CC)OC(=O)CC(O)C2C)OC(C)CC1N(C)C` (centres unmarked) [Antibiotic 67-694 2'-Propionate Phosphate Salt], the “potency (bioassay)” value ([1]; Phosphate Salt) is reported as 915 µg/mg.

In the case of `CCC1OC(=O)CC(O)C(C)C(OC2OC(C)CC(N(C)C)C2O)C(CC=O)CC(C)C(=O)C=CC2(C)OC2C1C` (centres unmarked) [Antibiotic 67-694], the ED50 (Streptococcus pyogenes C; Oral) is reported as 200 mg/kg, the ED50 (Streptococcus pyogenes C; sc, Subcutaneous) is reported as 50 mg/kg and the MIC (Proteus sp.) is reported as 0.3 µg/mL (≈ 0.516 µM). It also gave an ED50 ([2]; oral) of 200 mg/kg, an ED50 ([2]; sc, Subcutaneous) of 50 mg/kg and an MIC (Diplococcus Pneumoniae) of 0.03 to 0.08 µg/mL (≈ 0.0516 to 0.138 µM). The “Stability to enzymes: loss in activity” value (chymotrypsin) was “no substantial loss in activity”, the MIC (Escherichia coli) was 3 µg/mL (≈ 5.16 µM) and the MIC (Klebsiella pneumoniae) was 0.3 to 3 µg/mL (≈ 0.516 to 5.16 µM). For the same compound, the “Stability to enzymes: loss in activity” value (trypsin) was “no substantial loss in activity”, the “potency (assaying units per mg)” value ([1]; purified by silicic acid column, Example 4) was “about 1,000 units per mg” and the MIC (Pseudomonas aeruginosa) was 0.75 to 3 µg/mL (≈ 1.29 to 5.16 µM). The MIC (Aerobacter aerogenes) was 0.75 to 7.5 µg/mL (≈ 1.29 to 12.9 µM), the “Stability to enzymes: loss in activity” value (α-amylase) was “no substantial loss in activity” and the MIC (Streptococcus pyogenes) was 0.75 to 3 µg/mL (≈ 1.29 to 5.16 µM). The Solubility (Solubility; Acetone) was “Very soluble”, the Solubility (Solubility; Benzene) was “Very soluble” and the Solubility (Solubility; Chloroform) was “Very soluble”. For the same compound, the Solubility (Solubility; Ether) was “Sparingly soluble”, the Solubility (Solubility; Methanol) was “Very soluble” and the Solubility (Solubility; Water) was “Slightly soluble”. For the same compound, the “Stability to enzymes: loss in activity” value (pepsin) was “no substantial loss in activity”, the LD50 (Acute toxicity in mice; ip, Intraperitoneal) was 350 mg/kg and the LD50 (Acute toxicity in mice; sc, Subcutaneous) was 625 mg/kg. For the same compound, the LD50 (Acute toxicity in mice; Intravenous) was 155 mg/kg, the “antibacterial activity / spectrum (in words)” value (gram-positive bacteria) was “broad antibacterial spectrum in vitro with a greater effect upon gram-positive bacteria” and the pKa (pKa) was 8.7. For the same compound, the MIC [3] was 0.3 to 3 µg/mL (≈ 0.516 to 5.16 µM), the MIC (Enterococcus sp.) was 0.03 µg/mL (≈ 0.0516 µM) and the MIC (Staphylococcus aureus) was 0.03 to 3 µg/mL (≈ 0.0516 to 5.16 µM). The pKa [4] was 8.4, the Solubilities ([5]; benzene, chloroform, ethyl acetate, dimethylformamide, ethanol or an aqueous acid solution) was “Soluble” and the Solubilities ([5]; petroleum ether, n-hexane or a neutral water) was “Insoluble”.
